In test [1] the target is T1, Neuropeptides B/W receptor type 1 (Homo sapiens, UniProt P48145).
T1 sequence (P48145 whole entry): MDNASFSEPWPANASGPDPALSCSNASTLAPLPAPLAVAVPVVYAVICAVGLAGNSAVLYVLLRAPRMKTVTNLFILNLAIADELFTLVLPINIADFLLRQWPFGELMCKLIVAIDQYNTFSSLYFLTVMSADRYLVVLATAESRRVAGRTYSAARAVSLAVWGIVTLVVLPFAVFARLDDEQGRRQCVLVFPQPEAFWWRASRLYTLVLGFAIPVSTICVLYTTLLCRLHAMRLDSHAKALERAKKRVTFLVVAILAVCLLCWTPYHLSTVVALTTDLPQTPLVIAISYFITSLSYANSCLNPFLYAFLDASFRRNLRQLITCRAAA
Put plainly: Fluorescence-based dose response cell-based high throughput screening assay to identify antagonists of the G-protein coupled receptor 7 (GPR7). [Related pubchem assays: 1952 (Screening assay (GPR7 antagonists).), 1880 (Summary AID.)]. Type of test: functional.

For test [2], the target named is Melanin-concentrating hormone receptor 1 (Homo sapiens, UniProt Q99705). Put plainly: Fluorescence-based counterscreen for antagonists of the G-protein coupled receptor 7 (GPR7): cell-based high throughput dose response assay to identify antagonists of the melanin-concentrating hormone receptor 1 (MCHR1). The test is classed as functional. In general terms: A counterscreen serves to expose hits that act by an unwanted route or on another target.
Chain of Melanin-concentrating hormone receptor 1 (Q99705 whole entry): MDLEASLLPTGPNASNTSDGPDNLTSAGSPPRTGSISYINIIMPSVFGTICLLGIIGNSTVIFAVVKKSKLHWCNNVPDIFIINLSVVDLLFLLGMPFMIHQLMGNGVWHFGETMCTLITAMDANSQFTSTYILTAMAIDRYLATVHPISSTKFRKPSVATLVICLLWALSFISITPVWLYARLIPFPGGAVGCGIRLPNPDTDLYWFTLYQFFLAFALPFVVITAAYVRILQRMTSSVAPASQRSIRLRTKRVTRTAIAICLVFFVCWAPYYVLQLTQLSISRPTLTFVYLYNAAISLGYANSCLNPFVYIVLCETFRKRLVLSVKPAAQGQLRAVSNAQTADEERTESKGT

Test [3] has as its target T2, Bcl-2-related protein A1 (Mus musculus, UniProt Q07440).
T2 sequence (Q07440 whole entry): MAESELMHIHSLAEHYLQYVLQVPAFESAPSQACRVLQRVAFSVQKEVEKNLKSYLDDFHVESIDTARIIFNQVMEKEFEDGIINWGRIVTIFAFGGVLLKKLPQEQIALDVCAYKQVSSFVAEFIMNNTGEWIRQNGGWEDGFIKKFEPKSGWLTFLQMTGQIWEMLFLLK
Put plainly: Bfl-1 inhibitors, primary screen, biochemical, fluorescence polarization, FITC-Bid, mouse (AID 432).

For test [4], the target named is T2, Bcl-2-related protein A1. Put plainly: Bfl-1 inhibitors blocking BH3 peptide binding, confirmation, biochemical, TR-FRET, mouse Bfl-1 (AID 621).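 Note: TR-FRET binding of GST-Bfl-1 to FITC-labelled Bid peptide via terbium antibody.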 On the technique in general: TR-FRET usually uses a lanthanide donor and a delayed reading to cut background.
In a further test the test system is Vero. Put plainly: host cell cytotoxicity of antiviral hits, dose response, cytotoxicity control for West Nile virus antiviral project, secondary assay (AID 1650). Type of test: functional. Conditions: Chlorocebus sabaeus.
Test [5] in a line: growth suppression of PTEN-null colon cells, dose response, cell-based, HCT116 PTEN knockout (AID 1047).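 Note: HCT116 colon tumor cells with PTEN knocked out; cells exposed to compound for 60 hours before readout; potency for loss of cell viability measured by luminescence.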 Type of test: functional.
The nature of test [6]: growth suppression of beta-catenin-knockout colon cells, dose response, cell-based, HCT116, human colon tumor (AID 1045).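 Note: HCT116 colon tumor cells with beta catenin knocked out; cells exposed to compound for 60 hours.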 The test is classed as functional.
The target of the next test is Cytochrome P450 2C19 (Homo sapiens, UniProt P33261). Put plainly: qHTS Assay for Inhibitors and Substrates of Cytochrome P450 2C19. [Related pubchem assays: 410 ]. The test is classed as ADME. The settings on record: read-out: Potency. For orientation: Quantitative high-throughput screening tests each substance at several concentrations.
Chain of Cytochrome P450 2C19 (P33261 whole entry): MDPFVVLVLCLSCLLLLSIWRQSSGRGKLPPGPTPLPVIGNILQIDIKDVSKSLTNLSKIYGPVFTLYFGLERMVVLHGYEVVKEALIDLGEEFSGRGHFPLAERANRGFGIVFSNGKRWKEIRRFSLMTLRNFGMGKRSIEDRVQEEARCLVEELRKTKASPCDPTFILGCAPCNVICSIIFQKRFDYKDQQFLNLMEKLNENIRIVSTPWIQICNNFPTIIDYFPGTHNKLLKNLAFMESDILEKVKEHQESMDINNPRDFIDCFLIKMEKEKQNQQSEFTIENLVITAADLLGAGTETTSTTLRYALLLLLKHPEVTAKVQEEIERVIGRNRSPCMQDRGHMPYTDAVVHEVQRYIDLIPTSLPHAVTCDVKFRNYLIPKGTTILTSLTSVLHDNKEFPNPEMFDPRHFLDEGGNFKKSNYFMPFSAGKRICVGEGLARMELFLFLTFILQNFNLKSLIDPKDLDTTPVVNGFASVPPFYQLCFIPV
Test [7] deals with Heat shock protein HSP 90-alpha (Homo sapiens, UniProt P07900). Put plainly: Luminescence-based dose response biochemical high throughput screening assay for inhibitors of the Heat Shock Protein 90 (HSP90). [Related pubchem assays: 1831 (Summary AID.), 1846 (Confirmation screen.), 1789 (Primary screen.)].
The nature of test [8]: Late stage assay provider results from the probe development effort to identify selective inhibitors of heat shock protein 90 (HSP90): Absorbance-based cell proliferation assay in SKBR3 cells. Type of test: functional. Conditions: SK-BR-3.
Test [9] is described as follows: Late stage assay provider results from the probe development effort to identify selective inhibitors of heat shock protein 90 (HSP90): Absorbance-based cell proliferation assay in MCF7 cells. Type of test: functional.
Test [10] in a line: THP-1 cell cytotoxicity, dose response, cytotoxicity control for Vif-APOBEC3G degradation inhibitor project, THP-1 cells (AID 1117359). The test is classed as functional. Conditions: Human immunodeficiency virus 1, THP-1.
Test [11] has as its target Glyceraldehyde-3-phosphate dehydrogenase (Homo sapiens, UniProt P04406).
Test [12] addresses T2, Bcl-2-related protein A1. Put plainly: Bfl-1 binding inhibitors, SAR follow-up, biochemical, fluorescence polarization (AID 1070).
The target in test [13] is Sphingosine 1-phosphate receptor 2 (Homo sapiens, UniProt O95136). Put plainly: Dose Response Cell Based Assay for Antagonists of the S1P2 Receptor. [Related pubchem assays: 856, 736 ]. Type of test: functional.
Test [14] deals with Neurotensin receptor type 1 (Homo sapiens, UniProt P30989). Type of test: functional.
Chain of Neurotensin receptor type 1 (P30989 whole entry): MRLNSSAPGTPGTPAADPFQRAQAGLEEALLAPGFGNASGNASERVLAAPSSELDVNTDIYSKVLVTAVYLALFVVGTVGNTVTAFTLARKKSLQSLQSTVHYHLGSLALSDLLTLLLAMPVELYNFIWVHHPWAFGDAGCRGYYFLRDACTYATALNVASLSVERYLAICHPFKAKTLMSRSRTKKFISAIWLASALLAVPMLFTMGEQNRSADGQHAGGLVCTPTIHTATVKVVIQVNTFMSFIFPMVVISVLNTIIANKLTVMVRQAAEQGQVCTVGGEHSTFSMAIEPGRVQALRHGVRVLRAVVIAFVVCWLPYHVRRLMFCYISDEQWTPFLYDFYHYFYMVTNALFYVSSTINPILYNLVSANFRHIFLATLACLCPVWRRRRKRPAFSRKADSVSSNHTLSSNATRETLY
A short description of test [15]: Shn3 3'UTR reporter inhibitors, dose response, cell-based, Clone20 osteoblasts, firefly luciferase, cherry-picked (AID 624132).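 Note: firefly luciferase luminescence from reporter carrying the Shn3 3'UTR in osteoblasts.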 The test is classed as functional.
Test [16] is described as follows: HepG2 cell cytotoxicity, dose response, cytotoxicity control for Shn3 inhibitor project, CellTiter-Glo, cherry-picked (AID 624134). Type of test: functional, cell-based.
Test [17] in a line: control 3'UTR Renilla luciferase suppression, dose response, counter-screen for Shn3 inhibitor project, cell-based, Clone20-Shn3RL, cherry-picked (AID 624133). The test is classed as functional.
Another test concerns the target Protein Wnt-3a (Mus musculus, UniProt P27467). Put plainly: Wnt3a-driven reporter signaling inhibition, dose response, selectivity assay for Gli-SUFU antagonist project, Wnt-LIGHT cells, luminescence (AID 651570).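 Note: Wnt-LIGHT reporter cells stimulated with conditioned medium from Wnt3a-producing cells.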 The test is classed as functional. Conditions: read-out: IC50_Mean.
A short description of test [18]: inhibitors of HIV Env-driven cell fusion, dose response, cherry-pick (AID 652057). Type of test: functional, cell-based.
Test [19] is described as follows: CEM21 lymphoblast cell cytotoxicity, dose response, cytotoxicity control for viral fusion inhibitor project, CellTiter-Glo luminescence, cherry-picked (AID 652042).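 Note: potency for signal decrease meaning cytotoxicity.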 Type of test: functional, cell-based.
A short description of test [20]: inhibitors of clade B AD8 Env fusion, dose response, cell-based, cherry-pick (AID 652062).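 Note: luciferase signal from cell-cell fusion driven by HIV-1 clade B AD8 Env; potency is for inhibitors of fusion seen as a drop in luminescence.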 The test is classed as functional.
A short description of test [21]: reduction of endogenous Shn3 mRNA, dose response, qPCR, Clone20 cells, cherry-pick (AID 743415). The test is classed as functional, cell-based.
In test [22] the target is COUP transcription factor 2 (Homo sapiens, UniProt P24468). Put plainly: Luminescence-based cell-based high throughput dose response assay to identify inhibitors of COUP-TFII (NR2F2). The test is classed as functional.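 Note: HEK293 cells transiently cotransfected with COUP-TFII expression vector and reporter; luciferase reporter luminescence driven by COUP-TFII from the pX2-168 reporter plasmid.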
Chain of COUP transcription factor 2 (P24468 whole entry): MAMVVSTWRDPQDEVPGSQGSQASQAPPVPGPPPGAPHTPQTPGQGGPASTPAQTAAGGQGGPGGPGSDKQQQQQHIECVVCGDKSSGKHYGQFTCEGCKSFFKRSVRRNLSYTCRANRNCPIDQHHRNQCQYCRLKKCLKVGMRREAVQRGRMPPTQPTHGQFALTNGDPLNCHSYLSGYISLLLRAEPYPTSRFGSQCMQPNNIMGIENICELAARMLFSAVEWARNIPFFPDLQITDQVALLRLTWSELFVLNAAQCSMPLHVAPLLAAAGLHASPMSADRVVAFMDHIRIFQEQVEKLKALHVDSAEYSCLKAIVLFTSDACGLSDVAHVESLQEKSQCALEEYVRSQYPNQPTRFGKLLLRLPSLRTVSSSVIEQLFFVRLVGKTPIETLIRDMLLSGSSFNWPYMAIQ
Test [23] in a line: reduction of Shn3 3'UTR firefly luciferase signal, dose response, Schnurri-3 inhibitor project, cell-based, Clone20 osteoblasts, cherry-pick, set 2 (AID 720490).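 Note: actives lower the luminescence signal as inhibitors.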 Type of test: functional.
The target of test [24] is 5-hydroxytryptamine receptor 1A (Homo sapiens, UniProt P08908). Type of test: functional.
Chain of 5-hydroxytryptamine receptor 1A (P08908 whole entry): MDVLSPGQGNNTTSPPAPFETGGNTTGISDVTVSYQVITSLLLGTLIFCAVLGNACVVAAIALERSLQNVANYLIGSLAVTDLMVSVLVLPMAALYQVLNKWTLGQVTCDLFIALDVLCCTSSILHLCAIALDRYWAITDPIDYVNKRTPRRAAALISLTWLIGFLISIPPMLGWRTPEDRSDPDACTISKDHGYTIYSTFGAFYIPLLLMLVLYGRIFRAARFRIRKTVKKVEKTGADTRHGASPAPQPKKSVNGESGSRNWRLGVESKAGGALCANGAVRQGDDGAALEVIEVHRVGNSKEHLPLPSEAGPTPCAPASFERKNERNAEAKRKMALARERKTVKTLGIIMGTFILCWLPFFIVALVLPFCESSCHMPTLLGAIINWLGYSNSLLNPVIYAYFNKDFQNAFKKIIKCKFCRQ
A further test concerns the target Genome polyprotein (Hepatitis C virus, UniProt Q2Q167). Put plainly: HCV core protein dimerization inhibitors, dose response, biochemical, TR-FRET (AID 2159).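 Note: blocks dimerization of HCV core protein measured by TR-FRET between tagged core106 pairs.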 Also noted: species or system Hepacivirus hominis.
A short description of test [25]: inhibitors of firefly luciferase expression or activity, dose response, H4 neuroglioma cells, luminescence (AID 1990). The test is classed as functional, cell-based.
Test [26] can be described thus: Luminescence Cell-Based Dose Response HTS to Identify Inhibitors of 5'UTR Stem-Loop Driven Prion Protein mRNA Translation in H4 Neuroglioblastoma Cells. [Related pubchem assays: 1827 (Project Summary), 1813 (Primary HTS)]. Type of test: functional.
Test [27] is described as follows: inhibitors of SNCA 5'UTR-driven reporter translation, confirmation, H4 neuroglioma cells, luminescence (AID 1988). The test is classed as functional, cell-based.
A short description of test [28]: Luminescence-based dose response cell-based high throughput screening assay for cytotoxic compounds using the IEC-6 intestinal epithelial cell line. [Related pubchem assays: 1858 (Summary AID.), 1825 (Counterscreen.), 1907 (Confirmation screen.)]. The test is classed as functional.
The target of another test is T3, Estrogen receptor (Homo sapiens, UniProt P03372).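 Note: potency for inhibiting coactivator peptide recruitment to the receptor.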
T3 sequence (P03372 whole entry): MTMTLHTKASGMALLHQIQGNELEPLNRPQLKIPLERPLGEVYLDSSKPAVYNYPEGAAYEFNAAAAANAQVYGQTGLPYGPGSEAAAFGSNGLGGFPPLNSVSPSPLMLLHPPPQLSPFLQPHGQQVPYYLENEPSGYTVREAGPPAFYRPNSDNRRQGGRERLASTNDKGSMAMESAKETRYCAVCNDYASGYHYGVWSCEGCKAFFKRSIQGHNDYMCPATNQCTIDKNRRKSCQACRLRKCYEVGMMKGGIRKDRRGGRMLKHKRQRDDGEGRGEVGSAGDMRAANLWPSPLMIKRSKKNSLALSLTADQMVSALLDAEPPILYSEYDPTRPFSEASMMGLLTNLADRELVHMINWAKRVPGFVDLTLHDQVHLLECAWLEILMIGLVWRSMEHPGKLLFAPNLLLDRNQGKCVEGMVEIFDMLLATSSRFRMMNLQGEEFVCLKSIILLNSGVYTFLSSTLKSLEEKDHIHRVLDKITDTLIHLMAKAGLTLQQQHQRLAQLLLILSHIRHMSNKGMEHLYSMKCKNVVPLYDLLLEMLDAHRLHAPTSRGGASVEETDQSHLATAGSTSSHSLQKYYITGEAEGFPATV

The next test addresses SUMO-activating enzyme (Homo sapiens, UniProt Q9UBT2). Put plainly: inhibitors of in vitro SUMOylation cascade, primary screen, biochemical, HTRF, uHTS (AID 2006). The test is classed as protein-complex assay.
For test [29], the target named is Protein-tyrosine kinase 2-beta (Homo sapiens, UniProt Q14289).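 Note: potency of inhibitors of PYK2 kinase phosphorylation of poly-GT substrate.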
Chain of Protein-tyrosine kinase 2-beta (Q14289 whole entry): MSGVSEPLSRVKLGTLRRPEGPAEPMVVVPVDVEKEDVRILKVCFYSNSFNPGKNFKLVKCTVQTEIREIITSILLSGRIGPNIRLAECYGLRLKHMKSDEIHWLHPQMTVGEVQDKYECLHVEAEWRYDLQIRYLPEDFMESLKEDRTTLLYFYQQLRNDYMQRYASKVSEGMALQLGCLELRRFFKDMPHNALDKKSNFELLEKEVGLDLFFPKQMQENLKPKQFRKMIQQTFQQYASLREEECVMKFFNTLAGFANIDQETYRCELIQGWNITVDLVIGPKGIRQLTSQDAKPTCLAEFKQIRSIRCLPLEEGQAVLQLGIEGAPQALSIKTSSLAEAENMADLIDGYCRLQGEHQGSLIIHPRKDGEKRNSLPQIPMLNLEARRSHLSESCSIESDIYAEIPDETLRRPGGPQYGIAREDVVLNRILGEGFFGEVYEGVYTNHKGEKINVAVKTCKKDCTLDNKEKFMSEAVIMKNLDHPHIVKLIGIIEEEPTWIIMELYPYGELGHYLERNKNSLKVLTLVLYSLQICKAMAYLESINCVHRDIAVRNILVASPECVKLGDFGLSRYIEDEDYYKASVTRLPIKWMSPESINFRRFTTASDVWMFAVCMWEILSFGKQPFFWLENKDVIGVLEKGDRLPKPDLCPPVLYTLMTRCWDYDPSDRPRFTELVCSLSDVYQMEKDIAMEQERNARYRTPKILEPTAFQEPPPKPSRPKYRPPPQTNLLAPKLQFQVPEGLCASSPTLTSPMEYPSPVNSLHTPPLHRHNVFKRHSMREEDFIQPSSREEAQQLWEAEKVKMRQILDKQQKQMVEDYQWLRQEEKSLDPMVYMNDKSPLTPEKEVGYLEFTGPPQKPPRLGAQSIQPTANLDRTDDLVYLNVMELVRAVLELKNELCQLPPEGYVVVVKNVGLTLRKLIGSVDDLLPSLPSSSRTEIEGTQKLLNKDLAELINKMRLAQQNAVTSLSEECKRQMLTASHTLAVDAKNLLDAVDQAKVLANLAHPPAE
A further test concerns the target Cytochrome P450 2D6 (Homo sapiens, UniProt P10635).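 Note: CYP2D6 member of a cytochrome P450 panel assay.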

Activity calls are given as the source filed them.

Chain of Glyceraldehyde-3-phosphate dehydrogenase (P04406 whole entry): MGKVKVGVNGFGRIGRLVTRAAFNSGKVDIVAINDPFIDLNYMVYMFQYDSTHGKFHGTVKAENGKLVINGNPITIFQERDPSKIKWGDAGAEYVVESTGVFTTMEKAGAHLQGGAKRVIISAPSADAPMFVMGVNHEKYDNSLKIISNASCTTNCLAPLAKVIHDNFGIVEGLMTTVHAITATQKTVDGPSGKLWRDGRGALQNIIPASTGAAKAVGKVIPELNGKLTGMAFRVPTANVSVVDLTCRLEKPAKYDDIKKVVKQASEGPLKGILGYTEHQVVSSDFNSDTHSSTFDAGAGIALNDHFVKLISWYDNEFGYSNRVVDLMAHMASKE
Chain of SUMO-activating enzyme (Q9UBE0 whole entry): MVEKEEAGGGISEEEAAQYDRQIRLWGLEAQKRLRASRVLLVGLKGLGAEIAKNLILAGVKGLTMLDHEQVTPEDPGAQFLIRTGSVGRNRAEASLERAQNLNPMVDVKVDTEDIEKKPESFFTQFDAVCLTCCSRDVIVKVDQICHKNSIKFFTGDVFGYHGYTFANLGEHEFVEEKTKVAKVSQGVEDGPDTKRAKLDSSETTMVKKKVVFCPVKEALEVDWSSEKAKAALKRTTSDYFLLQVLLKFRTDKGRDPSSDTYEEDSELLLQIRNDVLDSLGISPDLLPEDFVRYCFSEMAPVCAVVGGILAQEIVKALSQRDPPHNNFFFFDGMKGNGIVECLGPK
Chain of SUMO-activating enzyme (Q9UBT2 whole entry): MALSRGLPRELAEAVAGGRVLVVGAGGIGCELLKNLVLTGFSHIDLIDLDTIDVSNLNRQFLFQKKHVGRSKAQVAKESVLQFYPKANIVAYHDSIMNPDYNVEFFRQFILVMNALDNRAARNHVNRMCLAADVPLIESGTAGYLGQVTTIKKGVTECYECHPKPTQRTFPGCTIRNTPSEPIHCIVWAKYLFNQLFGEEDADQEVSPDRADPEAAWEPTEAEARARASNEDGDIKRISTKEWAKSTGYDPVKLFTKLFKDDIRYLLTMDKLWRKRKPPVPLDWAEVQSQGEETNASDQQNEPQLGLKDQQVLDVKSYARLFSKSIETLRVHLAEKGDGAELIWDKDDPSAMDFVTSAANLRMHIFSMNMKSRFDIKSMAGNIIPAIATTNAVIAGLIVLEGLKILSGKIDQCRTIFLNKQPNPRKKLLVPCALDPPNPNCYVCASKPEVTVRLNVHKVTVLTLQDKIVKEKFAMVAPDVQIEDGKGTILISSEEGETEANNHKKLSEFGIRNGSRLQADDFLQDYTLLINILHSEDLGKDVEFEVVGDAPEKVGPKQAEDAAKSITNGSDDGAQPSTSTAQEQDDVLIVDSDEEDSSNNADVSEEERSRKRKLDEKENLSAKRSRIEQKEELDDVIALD
Chain of Cytochrome P450 2D6 (P10635 whole entry): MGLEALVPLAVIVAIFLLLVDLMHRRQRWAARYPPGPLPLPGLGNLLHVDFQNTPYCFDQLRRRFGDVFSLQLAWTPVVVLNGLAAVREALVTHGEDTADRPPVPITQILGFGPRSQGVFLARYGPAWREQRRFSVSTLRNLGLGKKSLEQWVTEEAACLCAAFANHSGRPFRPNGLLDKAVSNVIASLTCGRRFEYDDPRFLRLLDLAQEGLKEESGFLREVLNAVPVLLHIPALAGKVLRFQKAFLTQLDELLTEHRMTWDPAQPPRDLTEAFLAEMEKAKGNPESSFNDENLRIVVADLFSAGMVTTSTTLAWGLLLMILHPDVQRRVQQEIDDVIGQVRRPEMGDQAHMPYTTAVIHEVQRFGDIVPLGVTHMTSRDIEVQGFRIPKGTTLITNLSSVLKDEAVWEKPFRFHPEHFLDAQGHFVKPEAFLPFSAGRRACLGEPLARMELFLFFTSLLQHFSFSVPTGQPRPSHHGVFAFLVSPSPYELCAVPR

With `COc1ccc(S(=O)(=O)N(CC(=O)Nc2ccc(S(=O)(=O)N3CCOCC3)cc2)Cc2ccc(F)cc2)cc1`, the IC50 in test [1] and in [2] was > 43.8 µM (not active) each time.

Turning to `O=C(NC12CC3CC(CC(C3)C1)C2)c1ccccc1O`, the IC50 against Bcl-2-related protein A1 [3] and on Bcl-2-related protein A1 [4] was > 100 µM (not active) in each case.

Usually CC50 stands for the concentration giving 50% cytotoxicity. Usually EC50 stands for the concentration at which the effect is half-maximal. Turning to `C=CCn1c(SCC(=O)c2[nH]c(C)c(C(=O)OCC)c2C)nc2scc(-c3ccccc3)c2c1=O`, the CC50 in the test with Vero is > 100 µM (active). Also, the EC50 in [5] was 5.36 µM (active); in [6], 3.85 µM (active).

In the case of `OCC1OC(c2ccccc2)C=CC1Oc1cc(Cl)cc(Cl)c1` (configuration not stated), the AC50 at Cytochrome P450 2C19 is 1.26 µM (inconclusive).

Consider `CCOc1ccc(-c2nc(CN3CCCCC3CCn3cccn3)c(C)o2)cc1` (configuration not stated), for which the figures for the IC50 in test [7], in test [8] and in test [9] were 9.63 µM (active), 12.3 µM (inactive) and 22.2 µM (inactive), respectively. For the same molecule, the CC50 in test [10] is > 40 µM (active).

For the molecule `CN1CCN(C2=C(Cl)C(=O)N(c3cccc(Cl)c3)C2=O)CC1`, the results for the IC50 (in [11]; on Bcl-2-related protein A1 [4]; at Bcl-2-related protein A1 [12]) were > 100 µM (not active), 1.17 µM (active) and 2.15 µM (active), respectively.

Regarding `Fc1ccc(-n2nnnc2-c2cnc(-c3cccs3)nc2C(F)(F)F)cc1`, the IC50 is 5.2 µM (active) in [13], 5.83 µM (active) at Protein Wnt-3a and 12.8 µM (inactive) in [22]. Further, the EC50 in test [14] was 9.77 µM (active). The AC50 in [15] is 4.44 µM (active); in test [16], 55 µM (active); in test [17], 13.3 µM (active); in test [18], 9.88 µM (active); in [19], 18.8 µM (active); in test [20], 40.4 µM (active). Further, the AC50 in test [21] was 24.4 µM (active); in test [23], 2.6 µM (active).

For the molecule `O=C(NCc1ccccc1)NC1(C(=O)N2CCCC2)CCCCC1`, the EC50 in [24] is listed as > 50 µM (not active).

With `CCc1nnc(NCC(=O)N2CCc3ccccc32)s1`, the IC50 against Genome polyprotein is on record as > 49.8 µM (not active).

`CC(C)NCC(O)Cn1c2c(c3ccccc31)CCc1c-2cnn1-c1ccccc1` (configuration not stated): the EC50 in test [25] is 8.19 µM (active); in test [26], 10.7 µM (active); in test [27] it was 6.18 µM (active). For the same molecule, the IC50 in test [28] is 3.51 µM (active).

With `O=C(Nc1ccc(-n2nncc2-c2ccco2)cc1)c1cc2ccccc2oc1=O`, the figures for the IC50 (against Estrogen receptor; at SUMO-activating enzyme; in [29]) were 40.6 µM (not active), 14.7 µM (active) and 1.9 µM (active), respectively. In addition, the AC50 on Cytochrome P450 2D6 was 2.51 µM (inconclusive).

For the origin of these results see ChEMBL document CHEMBL1201862, “PubChem BioAssay data set” (2004).
